Measurements published in patent US7250442B2, “Dihydroindol-2-one derivatives as steroid hormone nuclear receptor modulators” (Eli Lilly and Company, priority 2003, dated 2007).
pKi: −log10 of the molar value.

Target: T1, glucocorticoid receptor (Homo sapiens, UniProt P04150)
T1 construct: host or cells: A549 human lung epithelial cells (sonicated cell extract)
T1 sequence (P04150 1-777): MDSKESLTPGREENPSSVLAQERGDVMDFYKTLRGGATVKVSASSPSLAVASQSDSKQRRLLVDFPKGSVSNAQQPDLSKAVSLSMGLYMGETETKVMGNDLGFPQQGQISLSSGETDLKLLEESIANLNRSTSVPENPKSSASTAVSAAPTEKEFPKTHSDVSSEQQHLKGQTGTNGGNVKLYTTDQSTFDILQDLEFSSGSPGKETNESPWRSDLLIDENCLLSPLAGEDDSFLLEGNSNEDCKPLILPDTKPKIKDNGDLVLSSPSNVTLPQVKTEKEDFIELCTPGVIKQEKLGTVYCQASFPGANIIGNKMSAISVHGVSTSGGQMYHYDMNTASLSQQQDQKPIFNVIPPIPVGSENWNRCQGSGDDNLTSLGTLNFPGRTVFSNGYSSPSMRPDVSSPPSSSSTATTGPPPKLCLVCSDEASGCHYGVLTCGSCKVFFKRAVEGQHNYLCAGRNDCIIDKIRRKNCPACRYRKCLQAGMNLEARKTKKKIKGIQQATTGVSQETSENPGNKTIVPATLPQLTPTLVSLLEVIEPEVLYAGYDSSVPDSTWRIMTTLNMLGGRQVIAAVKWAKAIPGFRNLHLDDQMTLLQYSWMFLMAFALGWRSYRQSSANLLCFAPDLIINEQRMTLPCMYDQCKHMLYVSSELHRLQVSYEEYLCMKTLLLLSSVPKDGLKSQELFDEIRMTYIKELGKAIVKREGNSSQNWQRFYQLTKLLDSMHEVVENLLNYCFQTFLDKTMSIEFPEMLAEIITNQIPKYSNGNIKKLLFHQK
Assay: Glucocorticoid Receptor Binding Assay ([3H]-dexamethasone displacement, A549 cell extract)
Details: A549 human lung epithelial cell extract, 1.86 nM [3H]-dexamethasone; read-out: GR Ki
How it was run: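 A549 cell extract (50-200 ug; buffer 50 mM Tris-HCl pH 7.2 with glycerol, NaCl, MgCl2, EDTA, 10 mM molybdate) incubated with 1.86 nM [3H]-dexamethasone and test compound, 16 h at 4 °C. Unbound ligand removed with dextran-coated charcoal; bound radioactivity counted. IC50 converted to Ki via Cheng-Prusoff.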

SMILES | pKi
COc1ccc(-c2noc(CN3C(=O)C(c4cc(C)c(O)c(C)c4)(c4cc(C)c(O)c(C)c4)c4ccccc43)n2)cc1 [Example 142, 3,3-Bis-(4-hydroxy-3,5-dimethyl-phenyl)-1-[3-(4-methoxy-phenyl)-[1,2,4]oxadiazol-5-ylmethyl]-1,3-dihydro-indol-2-one] | ≥ 6.00
COc1nccc(N2C(=O)C(c3cc(C)c(O)c(C)c3)(c3cc(C)c(O)c(C)c3)c3ccccc32)n1 [Example 143, 3,3-Bis-(4-hydroxy-3,5-dimethyl-phenyl)-1-(2-methoxy-pyrimidin-4-yl)-1,3-dihydro-indol-2-one] | ≥ 6.30
